The series relates to rodent carcinogenicity bioassays, tumor incidence. Put plainly: CCRIS carcinogenicity studies. The following applies: Dose: 0, Dose: 0. The method, boiled down:
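Archive of carcinogenicity, mutagenicity, tumor promotion and tumor inhibition results drawn from journals, NCI reports and other sources, expert-reviewed; covers 1985-2011 and is no longer updated.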

Calls of active or inactive are those of the source. How the calls were made is not given here.

As for `ClCCl`, the carcinogen call is, setting by setting: (Species: HAMSTER, Strain/Sex: SYRIAN/FEMALE, Route: INHALATION, 500, 1500, 3500 PPM IN AIR 6H/D 5D/WK FOR 104 WK (STUDY DURATION: 2 YR), 500, 1500, 3500 PPM IN AIR 6H/D 5D/WK FOR 104 WK (STUDY DURATION: 2 YR)) “inactive; negative”; (Species: HAMSTER, Strain/Sex: SYRIAN/MALE, Route: INHALATION, 500, 1500, 3500 PPM IN AIR 6H/D 5D/WK FOR 104 WK (STUDY DURATION: 2 YR), 500, 1500, 3500 PPM IN AIR 6H/D 5D/WK FOR 104 WK (STUDY DURATION: 2 YR)) “inactive; negative”; (Species: MOUSE, Strain/Sex: B6C3F1/FEMALE, Route: INHALATION, 2000, 4000 PPM 6 HR/D, 5 D/WK FOR 102 WK, 2000, 4000 PPM 6 HR/D, 5 D/WK FOR 102 WK, Tumor Site: Type of Lesion: LUNG: ALVEOLAR/BRONCHIOLAR ADENOMA, ALVEOLAR/BRONCHIOLAR CARCINOMA, LIVER: HEPATOCELLULAR ADENOMA, HEPATOCELLULAR CARCIN) “active; positive”; (Species: MOUSE, Strain/Sex: B6C3F1/FEMALE, Route: INHALATION, 2000 PPM 6 HR/D 5 D/WK FOR 26 WK FOLLOWED BY CHAMBER AIR EXPOSURE FOR 78 WK (STUDY DURATION: 104 WK), Tumor Site: Type of Lesion: LUNG: ADENOMA OR CARCINOMA) “active; positive”; (Species: MOUSE, Strain/Sex: B6C3F1/FEMALE, Route: INHALATION, 2000 PPM 6 HR/D 5 D/WK FOR 26 WK FOLLOWING A 78 WK EXPOSURE TO CHAMBER AIR (STUDY DURATION: 104 WK)) “inactive; negative”; (Species: MOUSE, Strain/Sex: B6C3F1/FEMALE, Route: INHALATION, 2000 PPM 6 HR/D 5 D/WK FOR 52 WK FOLLOWED BY CHAMBER AIR EXPOSURE FOR 52 WK (STUDY DURATION: 104 WK), Tumor Site: Type of Lesion: LUNG: ADENOMA OR CARCINOMA, LIVER: ADENOMA OR CARCINOMA) “active; positive”. The carcinogen call by setting is: (Species: MOUSE, Strain/Sex: B6C3F1/FEMALE, Route: INHALATION, 2000 PPM 6 HR/D 5 D/WK FOR 52 WK FOLLOWING A 52 WK EXPOSURE TO CHAMBER AIR (STUDY DURATION: 104 WK)) “inactive; negative”; (Species: MOUSE, Strain/Sex: B6C3F1/FEMALE, Route: INHALATION, 2000 PPM 6 HR/D 5 D/WK FOR 78 WK FOLLOWED BY CHAMBER AIR EXPOSURE FOR 26 WK (STUDY DURATION: 104 WK), Tumor Site: Type of Lesion: LUNG: ADENOMA OR CARCINOMA, LIVER: ADENOMA OR CARCINOMA) “active; positive”; (Species: MOUSE, Strain/Sex: B6C3F1/FEMALE, Route: INHALATION, 2000 PPM 6 HR/D 5 D/WK FOR 78 WK FOLLOWING A 26 WK EXPOSURE TO CHAMBER AIR (STUDY DURATION: 104 WK), Tumor Site: Type of Lesion: LUNG: ADENOMA OR CARCINOMA, LIVER: ADENOMA OR CARCINOMA) “active; positive”; (Species: MOUSE, Strain/Sex: B6C3F1/FEMALE, Route: INHALATION, 2000 PPM 6 HR/D 5 D/WK FOR 104 WK (STUDY DURATION: 104 WK), Tumor Site: Type of Lesion: LIVER: ADENOMA, CARCINOMA, LUNG: ADENOMA, CARCINOMA) “active; positive”; (Species: MOUSE, Strain/Sex: B6C3F1/FEMALE, Route: INHALATION, 2000 PPM 6 HR/D 5 D/WK FOR 104 WK (STUDY DURATION: 104 WK), Tumor Site: Type of Lesion: LUNG: ADENOMA OR CARCINOMA, LIVER: ADENOMA OR CARCINOMA) “active; positive”; (Species: MOUSE, Strain/Sex: B6C3F1/MALE, Route: INHALATION, 2000, 4000 PPM 6 HR/D, 5 D/WK FOR 102 WK, 2000, 4000 PPM 6 HR/D, 5 D/WK FOR 102 WK, Tumor Site: Type of Lesion: LUNG: ALVEOLAR/BRONCHIOLAR ADENOMA, ALVEOLAR/BRONCHIOLAR CARCINOMA, LIVER: HEPATOCELLULAR ADENOMA, HEPATOCELLULAR CARCIN) “active; positive”. The carcinogen call reads like this: (Species: MOUSE, Strain/Sex: SWISS/FEMALE, Route: GAVAGE, 100, 500 MG/KG IN OLIVE OIL 1/D 5 D/WK FOR 64 WK (STUDY DURATION: LIFETIME), 100, 500 MG/KG IN OLIVE OIL 1/D 5 D/WK FOR 64 WK (STUDY DURATION: LIFETIME)) “inactive; negative”; (Species: RAT, Strain/Sex: F344/FEMALE, Route: INHALATION, 1000, 2000, 4000 PPM 6 HR/D, 5 D/WK FOR 102 WK, 1000, 2000, 4000 PPM 6 HR/D, 5 D/WK FOR 102 WK, Tumor Site: Type of Lesion: MAMMARY GLAND: FIBROADENOMA, ADENOMA OR FIBROADENOMA, HEMATOPOIETIC SYSTEM (LEUKEMIA): MONONUCLEAR CELL LEUKEMIA) “active; positive”; (Species: RAT, Strain/Sex: F344/MALE, Route: INHALATION, 1000, 2000, 4000 PPM 6 HR/D, 5 D/WK FOR 102 WK, 1000, 2000, 4000 PPM 6 HR/D, 5 D/WK FOR 102 WK, Tumor Site: Type of Lesion: MAMMARY GLAND: FIBROADENOMA, ADENOMA OR FIBROADENOMA, TUNICA VAGINALIS: MESOTHELIOMA, MULTIPLE SITES: MESOTHELIOMA, Tumor Site: Type of Lesion: MAMMARY GLAND: FIBROADENOMA, ADENOMA OR FIBROADENOMA, TUNICA VAGINALIS: MESOTHELIOMA, MULTIPLE SITES: MESOTHELIOMA) “active; positive”; (Species: RAT, Strain/Sex: SPRAGUE-DAWLEY/FEMALE, Route: GAVAGE, 100, 500 MG/KG IN OLIVE OIL 1/D 5 D/WK FOR 64 WK (STUDY DURATION: LIFETIME), 100, 500 MG/KG IN OLIVE OIL 1/D 5 D/WK FOR 64 WK (STUDY DURATION: LIFETIME)) “inactive; negative”; (Species: RAT, Strain/Sex: SPRAGUE-DAWLEY/FEMALE, Route: INHALATION, 100 PPM 4 HR/D 5 D/WK FOR 7 WK THEN 7 HR/D 5 D/WK FOR 97 WK BEGINNING WHEN RATS WERE 12 DAY OLD EMBRYOS (STUDY DURATI) “inactive; negative”; (Species: RAT, Strain/Sex: SPRAGUE-DAWLEY/FEMALE, Route: INHALATION, 500, 1500, 3500 PPM IN AIR 6H/D 5D/WK FOR 104 WK (STUDY DURATION: 2 YR), 500, 1500, 3500 PPM IN AIR 6H/D 5D/WK FOR 104 WK (STUDY DURATION: 2 YR)) “inactive; negative”. The carcinogen call was “inactive; negative” (Species: RAT, Strain/Sex: SPRAGUE-DAWLEY/MALE, Route: GAVAGE, 100, 500 MG/KG IN OLIVE OIL 1/D 5 D/WK FOR 64 WK (STUDY DURATION: LIFETIME), 100, 500 MG/KG IN OLIVE OIL 1/D 5 D/WK FOR 64 WK (STUDY DURATION: LIFETIME)); “inactive; negative” (Species: RAT, Strain/Sex: SPRAGUE-DAWLEY/MALE, Route: INHALATION, 100 PPM 4 HR/D 5 D/WK FOR 7 WK THEN 7 HR/D 5 D/WK FOR 97 WK BEGINNING WHEN RATS WERE 12 DAY OLD EMBRYOS (STUDY DURATI); “active; positive” (Species: RAT, Strain/Sex: SPRAGUE-DAWLEY/MALE, Route: INHALATION, 500, 1500, 3500 PPM IN AIR 6H/D 5D/WK FOR 104 WK (STUDY DURATION: 2 YR), 500, 1500, 3500 PPM IN AIR 6H/D 5D/WK FOR 104 WK (STUDY DURATION: 2 YR), Tumor Site: Type of Lesion: SALIVARY GLAND: SARCOMA).
On to `COc1cc(-c2ccc(N/N=C3/C(=O)c4c(N)cc(S(=O)(=O)O)cc4C=C3S(=O)(=O)O)c(OC)c2)ccc1N/N=C1/C(=O)c2c(N)cc(S(=O)(=O)O)cc2C=C1S(=O)(=O)O`, for which the carcinogen call runs as follows: (Species: RAT, Strain/Sex: F344/FEMALE, Route: ORAL, 630, 1250, 2500 PPM IN DRINKING WATER FOR 22 MO (STUDY DURATION: 22 MO), 630, 1250, 2500 PPM IN DRINKING WATER FOR 22 MO (STUDY DURATION: 22 MO), Tumor Site: Type of Lesion: CLITORAL GLAND: ADENOMA, CARCINOMA, LIVER: NEOPLASTIC NODULE OR HEPATOCELLULAR CARCINOMA, ORAL CAVITY (TONGUE OR PHARYNX, Tumor Site: Type of Lesion: CLITORAL GLAND: ADENOMA, CARCINOMA, LIVER: NEOPLASTIC NODULE OR HEPATOCELLULAR CARCINOMA, ORAL CAVITY (TONGUE OR PHARYNX) “active; positive”; (Species: RAT, Strain/Sex: F344/MALE, Route: ORAL, 630, 1250, 2500 PPM IN DRINKING WATER FOR 22 MO (STUDY DURATION: 22 MO), 630, 1250, 2500 PPM IN DRINKING WATER FOR 22 MO (STUDY DURATION: 22 MO), Tumor Site: Type of Lesion: LARGE INTESTINE: ADENOMATOUS POLYP OR ADENOCARCINOMA, LIVER: NEOPLASTIC NODULE OR HEPATOCELLULAR CARCINOMA, ORAL CAVITY, Tumor Site: Type of Lesion: LARGE INTESTINE: ADENOMATOUS POLYP OR ADENOCARCINOMA, LIVER: NEOPLASTIC NODULE OR HEPATOCELLULAR CARCINOMA, ORAL CAVITY) “active; positive”.

The record behind these values is PubChem BioAssay AID1259411 (Chemical Carcinogenesis Research Information System (CCRIS), 2018).
